# Data reported in PMC2879007 (Biochemical pharmacology, 2010).
# Marks after values point to notes of the source that are not given here.
# Tests used:
# CYP2D6.1 = CYP2D6.1 (Homo sapiens, UniProt P10635); assay: bufotenine production from 5-MeO-DMT by recombinant CYP2D6.1; assay type: in vitro ADME
# CYP2D6.10 = CYP2D6.10 (Homo sapiens, UniProt P10635, P34S/S486T); assay: bufotenine production from 5-MeO-DMT by recombinant CYP2D6.10; assay type: in vitro ADME
# CYP2D6.2 = CYP2D6.2 (Homo sapiens, UniProt P10635, R296C/S486T); assay: bufotenine production from 5-MeO-DMT by recombinant CYP2D6.2; assay type: in vitro ADME
# [1] = serum pharmacokinetics in Tg-CYP2D6; assay type: in vivo, mice; conditions: for Cmax / MRT / Tmax / half-life: Tg-CYP2D6 (CYP2D6-humanized), mouse, ip; for Cmax / MRT / Tmax / half-life / AUC0→∞: serum
# [2] = serum pharmacokinetics in wild-type FVB/N mice; assay type: in vivo; conditions: for Cmax / MRT / Tmax / half-life: FVB/N (wild-type), mouse, ip; for Cmax / MRT / Tmax / half-life / AUC0→∞: serum
# [3] = tested on: human CYP2D6 EM hepatocytes; assay: 5-MeO-DMT depletion and bufotenine formation in human CYP2D6 EM hepatocytes
# [4] = as above; conditions: human, 5-MeO-DMT alone, 2 µM; for hepatocyte CLint at 2 µM: In vitro CLint
# [5] = tested on: human CYP2D6 PM hepatocytes; assay: 5-MeO-DMT depletion and bufotenine formation in human CYP2D6 PM hepatocytes
# [6] = as above; conditions: human, 5-MeO-DMT alone, 2 µM; for hepatocyte CLint at 2 µM: In vitro CLint
# [7] = bufotenine production from 5-MeO-DMT, Vmax/Km
# [8] = bufotenine production from 5-MeO-DMT, mean ± SEM
# [9] = 5-MeO-DMT O-demethylase activity
# [10] = Tg-CYP2D6 mice, 2 mg/kg 5-MeO-DMT alone i.p.
# [11] = wild-type mice, 2 mg/kg 5-MeO-DMT alone i.p.
# [12] = wild-type mice, 5-MeO-DMT 2 mg/kg i.p., harmaline 5 mg/kg i.p.
# [13] = PM hepatocytes 2, with harmaline, 2 µM each
# [14] = PM hepatocytes 3, with harmaline, 2 µM each
# [15] = PM hepatocytes 4, with harmaline, 2 µM each
smiles,measurement,setting,value
"COc1ccc2[nH]cc(CCN(C)C)c2c1 [5-MeO-DMT, 5-Methoxy-N,N-dimethyltryptamine]",CLint,CYP2D6.1; [7],0.44 µL/pmol P450/min
same,Vmax,CYP2D6.1; [8],12.8 ± 0.4 pmol/pmol P450/min
same,Km at 5 min,"CYP2D6.1; human, recombinant CYP2D6.1 reconstituted with P450 reductase, pH 7.4",29.3 ± 4.2 µM
same,lower catalytic efficiency (Vmax/Km) compared with wild-type CYP2D6.1,CYP2D6.10; [9],40 fold
same,CLint,CYP2D6.10; [7],0.011 µL/pmol P450/min
same,Vmax,CYP2D6.10; [8],10.3 ± 2.2 pmol/pmol P450/min
same,Km at 20 min,"CYP2D6.10; human, recombinant CYP2D6.10 reconstituted with P450 reductase, pH 7.4",947 ± 355 µM
same,lower catalytic efficiency (Vmax/Km) compared with wild-type CYP2D6.1,CYP2D6.2; [9],2.6 fold
same,CLint,CYP2D6.2; [7],0.17 µL/pmol P450/min
same,Vmax,CYP2D6.2; [8],14.4 ± 0.9 pmol/pmol P450/min
same,Km at 5 min,"CYP2D6.2; human, recombinant CYP2D6.2 reconstituted with P450 reductase, pH 7.4",85 ± 19.4 µM
same,Cmax,[1]; 2 mg/kg,1.19 ± 0.33 µM
same,MRT,[1]; 2 mg/kg,17.4 min
same,Tmax,[1]; 2 mg/kg,5.8 min
same,half-life,[1]; 2 mg/kg,14.7 ± 9 min
same,Cmax,[1]; 20 mg/kg,18.7 ± 0.9 µM
same,MRT,[1]; 20 mg/kg,23.1 min
same,Tmax,[1]; 20 mg/kg,6.3 min
same,half-life,[1]; 20 mg/kg,13.4 ± 1.4 min
same,clearance,[1]; [10],440 ± 50 mL/min/kg
same,increase of systemic exposure (AUC0→∞) by harmaline pre-treatment,"[1]; Tg-CYP2D6 mice, 5-MeO-DMT 2 mg/kg i.p., harmaline 5 mg/kg i.p.",3.6 fold
same,AUC0→∞,[1]; [10],21.1 ± 2.3 ^b µmol·min/L
same,AUC0→∞,"[1]; Tg-CYP2D6 mice, 20 mg/kg 5-MeO-DMT i.p.",568 ± 72 µmol·min/L
same,Cmax,[2]; 2 mg/kg,1.36 ± 0.16 µM
same,MRT,[2]; 2 mg/kg,19.1 min
same,Tmax,[2]; 2 mg/kg,5.3 min
same,half-life,[2]; 2 mg/kg,19.5 ± 12.2 min
same,Cmax,[2]; 20 mg/kg,18.3 ± 2.8 µM
same,MRT,[2]; 20 mg/kg,27.2 min
same,Tmax,[2]; 20 mg/kg,7.5 min
same,half-life,[2]; 20 mg/kg,13.4 ± 1 min
same,AUC0→∞,[2]; [11],25.1 ± 1.3 µmol·min/L
same,AUC0→∞,"[2]; wild-type mice, 20 mg/kg 5-MeO-DMT i.p.",650 ± 78 µmol·min/L
same,clearance,[2]; [11],370 ± 20 mL/min/kg
same,increase of Cmax by co-administered harmaline,[2]; [12],about 1.4 fold
same,increase of MRT by co-administered harmaline,[2]; [12],~2.1 fold
same,increase of systemic exposure (AUC0→∞) by harmaline pre-treatment,[2]; [12],4.4 fold
same,reduction of in vitro CLint by co-administered harmaline,"[3]; CYP2D6 EM hepatocytes, 5-MeO-DMT alone vs with harmaline",over 24 fold
same,Ke,"[3]; EM hepatocytes 1, 5-MeO-DMT alone, 2 µM",0.0214 min⁻¹
same,Ke,"[3]; EM hepatocytes 1, with harmaline, 2 µM each",0.00259 min⁻¹
same,Ke,"[3]; EM hepatocytes 2, 5-MeO-DMT alone, 2 µM",0.0232 min⁻¹
same,Ke,"[3]; EM hepatocytes 2, with harmaline, 2 µM each",0.00141 min⁻¹
same,Ke,"[3]; EM hepatocytes 3, 5-MeO-DMT alone, 2 µM",0.0273 min⁻¹
same,Ke,"[3]; EM hepatocytes 3, with harmaline, 2 µM each",0.00263 min⁻¹
same,Ke,"[3]; EM hepatocytes 4, 5-MeO-DMT alone, 2 µM",0.02 min⁻¹
same,Ke,"[3]; EM hepatocytes 4, with harmaline, 2 µM each",0.00195 min⁻¹
same,Ke,"[3]; EM hepatocytes 5, 5-MeO-DMT alone, 2 µM",0.0333 min⁻¹
same,Ke,"[3]; EM hepatocytes 5, with harmaline, 2 µM each",0.00061 min⁻¹
same,Ke,"[3]; EM hepatocytes Mean (N = 5), 5-MeO-DMT alone, 2 µM",0.025 min⁻¹
same,Ke,"[3]; EM hepatocytes Mean (N = 5), with harmaline, 2 µM each",0.00184 min⁻¹
same,half-life at 2 µM,"[4]; CYP2D6 EM hepatocytes, In vitro T1/2, EM hepatocytes 1",32.4 min
same,half-life at 2 µM,"[4]; CYP2D6 EM hepatocytes, In vitro T1/2, EM hepatocytes 2",29.9 min
same,hepatocyte CLint at 2 µM,"[4]; human CYP2D6 EM (extensive metabolizer) hepatocytes, EM hepatocytes 3",141 µL/min/1e6 cells
same,hepatocyte CLint at 2 µM,"[4]; human CYP2D6 EM (extensive metabolizer) hepatocytes, EM hepatocytes 4",51 µL/min/1e6 cells
same,hepatocyte CLint at 2 µM,"[4]; human CYP2D6 EM (extensive metabolizer) hepatocytes, EM hepatocytes 5",87.4 µL/min/1e6 cells
same,half-life at 2 µM,"[4]; human CYP2D6 EM (extensive metabolizer) hepatocytes, In vitro T1/2, EM hepatocytes 3",25.4 min
same,half-life at 2 µM,"[4]; human CYP2D6 EM (extensive metabolizer) hepatocytes, In vitro T1/2, EM hepatocytes 4",34.7 min
same,half-life at 2 µM,"[4]; human CYP2D6 EM (extensive metabolizer) hepatocytes, In vitro T1/2, EM hepatocytes 5",20.8 min
same,half-life at 2 µM,"[4]; human CYP2D6 EM (extensive metabolizer) hepatocytes, In vitro T1/2, EM hepatocytes Mean (N = 5)",28.6 min
same,Ke,"[5]; PM hepatocytes 1, 5-MeO-DMT alone, 2 µM",0.0186 min⁻¹
same,Ke,"[5]; PM hepatocytes 1, with harmaline, 2 µM each",0.00086 min⁻¹
same,Ke,"[5]; PM hepatocytes 2, 5-MeO-DMT alone, 2 µM",0.0251 min⁻¹
same,In vitro T1/2,[5]; [13],cannot be estimated
same,Ke,[5]; [13],cannot be estimated
same,Ke,"[5]; PM hepatocytes 3, 5-MeO-DMT alone, 2 µM",0.0215 min⁻¹
same,In vitro T1/2,[5]; [14],cannot be estimated
same,Ke,[5]; [14],cannot be estimated
same,Ke,"[5]; PM hepatocytes 4, 5-MeO-DMT alone, 2 µM",0.0265 min⁻¹
same,In vitro T1/2,[5]; [15],cannot be estimated
same,Ke,[5]; [15],cannot be estimated
same,Ke,"[5]; PM hepatocytes Mean (N = 4), 5-MeO-DMT alone, 2 µM",0.0229 min⁻¹
same,Ke,"[5]; PM hepatocytes Mean (only one sample estimable), with harmaline, 2 µM each",0.00086 min⁻¹
same,hepatocyte CLint at 2 µM,"[6]; CYP2D6 PM hepatocytes, PM hepatocytes Mean (N = 4)",81.9 µL/min/1e6 cells
same,half-life at 2 µM,"[6]; CYP2D6 PM hepatocytes, In vitro T1/2, PM hepatocytes Mean (N = 4)",30.8 min
same,hepatocyte CLint at 2 µM,"[6]; human CYP2D6 PM (poor metabolizer) hepatocytes, PM hepatocytes 1",66.5 µL/min/1e6 cells
same,hepatocyte CLint at 2 µM,"[6]; human CYP2D6 PM (poor metabolizer) hepatocytes, PM hepatocytes 2",95.8 µL/min/1e6 cells
same,hepatocyte CLint at 2 µM,"[6]; human CYP2D6 PM (poor metabolizer) hepatocytes, PM hepatocytes 3",88 µL/min/1e6 cells
same,half-life at 2 µM,"[6]; human CYP2D6 PM (poor metabolizer) hepatocytes, In vitro T1/2, PM hepatocytes 1",37.2 min
same,half-life at 2 µM,"[6]; human CYP2D6 PM (poor metabolizer) hepatocytes, In vitro T1/2, PM hepatocytes 2",27.6 min
same,half-life at 2 µM,"[6]; human CYP2D6 PM (poor metabolizer) hepatocytes, In vitro T1/2, PM hepatocytes 3",32.2 min
same,half-life at 2 µM,"[6]; human CYP2D6 PM (poor metabolizer) hepatocytes, In vitro T1/2, PM hepatocytes 4",26.1 min
